Calls of active or inactive are those of the source. The rule behind the calls is not given here.
What was measured:
[1] = target: T1, [Pyruvate dehydrogenase (acetyl-transferring)] kinase isozyme 1, mitochondrial (Homo sapiens, UniProt Q15118); test: Inhibition of full length His6-tagged PDK1 (unknown origin) expressed in Escherichia coli using full length His6-tagged PDHA1 as substrate after 30 mins by ELISA
[2] = target: T1, [Pyruvate dehydrogenase (acetyl-transferring)] kinase isozyme 1, mitochondrial; test: Inhibition of PDK1 in human A549 cells assessed as reduction in phosphorylation of PDHE1 at S293 residue at 10 uM after 24 hrs by chemiluminescence/femtochemiluminescence method; format: cell-based
[3] = target: T1, [Pyruvate dehydrogenase (acetyl-transferring)] kinase isozyme 1, mitochondrial; test: Inhibition of PDK1 in human A549 cells assessed as reduction in phosphorylation of PDHE1 at S232 residue at 10 uM after 24 hrs by chemiluminescence/femtochemiluminescence method; format: cell-based
[4] = target: T1, [Pyruvate dehydrogenase (acetyl-transferring)] kinase isozyme 1, mitochondrial; test: Inhibition of PDK1 in human A549 cells assessed as reduction in phosphorylation of PDHE1 at S232 residue at 1 uM after 24 hrs by chemiluminescence/femtochemiluminescence method; format: cell-based
[5] = target: T1, [Pyruvate dehydrogenase (acetyl-transferring)] kinase isozyme 1, mitochondrial; test: Inhibition of PDK1 in human A549 cells assessed as reduction in phosphorylation of PDHE1 at S293 residue at 1 uM after 24 hrs by chemiluminescence/femtochemiluminescence method; format: cell-based
[6] = target: T1, [Pyruvate dehydrogenase (acetyl-transferring)] kinase isozyme 1, mitochondrial; test: Inhibition of full length His6-tagged PDK1 (unknown origin) expressed in Escherichia coli assessed as inactivation rate using full length His6-tagged PDHA1 as substrate up to 45 mins by ELISA
[7] = target: T1, [Pyruvate dehydrogenase (acetyl-transferring)] kinase isozyme 1, mitochondrial; test: Ratio of Kinact to Ki for full length His6-tagged PDK1 (unknown origin) expressed in Escherichia coli
[8] = target: [Pyruvate dehydrogenase (acetyl-transferring)] kinase isozyme 2, mitochondrial (Homo sapiens, UniProt Q15119); test: Inhibition of PDK2 (unknown origin) using full length His6-tagged PDHA1 as substrate after 30 mins by ELISA
[9] = target: T1, [Pyruvate dehydrogenase (acetyl-transferring)] kinase isozyme 1, mitochondrial; test: Inhibition of full length His6-tagged PDK1 (unknown origin) expressed in Escherichia coli using full length His6-tagged PDHA1 as substrate in presence of GSH after 30 mins by ELISA
[10] = target: T2, [Pyruvate dehydrogenase (acetyl-transferring)] kinase isozyme 4, mitochondrial (Homo sapiens, UniProt Q16654); test: Inhibition of PDK4 (unknown origin) using full length His6-tagged PDHA1 as substrate after 30 mins by ELISA
Target sequence in this assay (Q16654 whole entry): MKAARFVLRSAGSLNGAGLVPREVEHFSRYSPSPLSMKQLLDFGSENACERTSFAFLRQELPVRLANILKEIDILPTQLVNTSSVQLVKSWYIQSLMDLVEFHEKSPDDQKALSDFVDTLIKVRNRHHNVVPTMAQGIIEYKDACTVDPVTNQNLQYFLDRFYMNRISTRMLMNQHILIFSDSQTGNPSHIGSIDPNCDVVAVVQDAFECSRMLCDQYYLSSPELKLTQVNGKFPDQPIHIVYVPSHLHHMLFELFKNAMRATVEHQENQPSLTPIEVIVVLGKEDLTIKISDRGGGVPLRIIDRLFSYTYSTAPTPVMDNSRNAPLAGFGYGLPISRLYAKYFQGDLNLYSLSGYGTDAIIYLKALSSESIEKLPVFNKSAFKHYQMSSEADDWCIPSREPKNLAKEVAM

[11] = Antiproliferative activity against human Kelly cells after 72 hrs by CCK8 assay
[12] = Antiproliferative activity against human GM00637 cells after 72 hrs by CCK8 assay; format: cell-based; conditions: GM00637, 72 h
[13] = target: [Pyruvate dehydrogenase (acetyl-transferring)] kinase isozyme 3, mitochondrial (Homo sapiens, UniProt Q15120); test: Inhibition of PDK3 (unknown origin) using full length His6-tagged PDHA1 as substrate after 30 mins by ELISA
[14] = tested on: L02; test: Antiproliferative activity against human LO2 cells after 72 hrs by CCK8 assay; format: cell-based; conditions: L02, 72 h
[15] = target: T1, [Pyruvate dehydrogenase (acetyl-transferring)] kinase isozyme 1, mitochondrial; test: Inhibition of PDK1 in human A549 cells assessed as reduction in extracellular acidification rate after 24 hrs by fluorescent biosensor based assay; format: cell-based
[16] = target: T1, [Pyruvate dehydrogenase (acetyl-transferring)] kinase isozyme 1, mitochondrial; test: Inhibition of PDK1 in human A549 cells assessed as increase in reactive oxygen species after 24 hrs by dihydroethidium staining based FACS analysis; format: cell-based
[17] = tested on: A549; test: Antitumor activity against human A549 cells xenografted in BALB/c nude mouse assessed as tumor growth inhibition at 80 mg/kg, ip for 21 days measured on day 21 post dose relative to control; format: functional; conditions: 504 h, read-out: TGI
[18] = target: T2, [Pyruvate dehydrogenase (acetyl-transferring)] kinase isozyme 4, mitochondrial; test: Inhibition of PDK4 (unknown origin) at 10 uM using full length His6-tagged PDHA1 as substrate after 30 mins by ELISA
Target sequence in this assay (Q16654 whole entry, looked up): as the sequence (Q16654 whole entry) above

[19] = target: T1, [Pyruvate dehydrogenase (acetyl-transferring)] kinase isozyme 1, mitochondrial; test: Inhibition of PDK1 in human A549 cells assessed as reduction in phosphorylation of PDHE1 at S293 residue after 24 hrs by chemiluminescence/femtochemiluminescence method; format: cell-based
[20] = tested on: A549; test: Antitumor activity against human A549 cells xenografted in BALB/c nude mouse assessed as tumor growth inhibition at 40 mg/kg, ip for 21 days measured on day 21 post dose relative to control; format: functional; conditions: 504 h, read-out: TGI
[21] = tested on: A549; test: cells; conditions: Homo sapiens, A549, 72 h
Description: Antiproliferative activity against human A549 cells after 72 hrs by CCK8 assay

[22] = target: T1, [Pyruvate dehydrogenase (acetyl-transferring)] kinase isozyme 1, mitochondrial; test: Inhibition of PDK1 in human A549 cells assessed as reduction in phosphorylation of PDHE1 at S232 residue after 24 hrs by chemiluminescence/femtochemiluminescence method; format: cell-based
[23] = tested on: A549; test: Antitumor activity against human A549 cells xenografted in BALB/c nude mouse assessed as reduction in tumor weight at 40 to 80 mg/kg, ip for 21 days measured on day 21 post dose; format: functional, organism-based
[24] = tested on: Mus musculus; test: Toxicity in BALB/c nude mouse assessed as body weight loss at 40 to 80 mg/kg, ip for 21 days; format: organism-based; conditions: in vivo, 504 h

T1 sequence (Q15118 whole entry): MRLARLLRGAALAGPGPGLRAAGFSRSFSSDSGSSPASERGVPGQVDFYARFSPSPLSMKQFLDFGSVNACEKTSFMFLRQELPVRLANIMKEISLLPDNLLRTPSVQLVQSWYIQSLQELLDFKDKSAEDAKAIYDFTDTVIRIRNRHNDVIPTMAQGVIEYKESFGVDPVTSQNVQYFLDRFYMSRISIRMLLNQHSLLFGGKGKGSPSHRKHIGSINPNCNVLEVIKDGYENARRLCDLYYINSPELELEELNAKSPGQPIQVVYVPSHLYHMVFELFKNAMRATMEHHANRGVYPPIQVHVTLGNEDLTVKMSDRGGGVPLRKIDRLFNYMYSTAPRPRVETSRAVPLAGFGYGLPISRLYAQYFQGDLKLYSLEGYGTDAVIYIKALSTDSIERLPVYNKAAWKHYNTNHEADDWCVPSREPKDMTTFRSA
Sequence of [Pyruvate dehydrogenase (acetyl-transferring)] kinase isozyme 3, mitochondrial (Q15120 whole entry): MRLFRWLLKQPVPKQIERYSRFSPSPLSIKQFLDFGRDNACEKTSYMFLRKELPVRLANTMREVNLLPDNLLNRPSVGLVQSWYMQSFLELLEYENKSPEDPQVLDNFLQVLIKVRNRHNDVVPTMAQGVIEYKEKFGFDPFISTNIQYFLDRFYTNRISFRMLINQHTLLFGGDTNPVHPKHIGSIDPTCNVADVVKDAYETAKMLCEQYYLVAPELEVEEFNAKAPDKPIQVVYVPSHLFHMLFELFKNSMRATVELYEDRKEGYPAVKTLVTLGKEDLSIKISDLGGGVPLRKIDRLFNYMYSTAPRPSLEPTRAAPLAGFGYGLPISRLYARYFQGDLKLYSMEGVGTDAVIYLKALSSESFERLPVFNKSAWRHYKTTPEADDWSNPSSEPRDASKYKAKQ

Cc1ccc(OCC2CN(C(=S)SSC(=S)N3CCOC(COc4ccc(C)cc4)C3)CCO2)cc1 (stereo unspecified)
IC50 [1]: 2.41 µM

CN(C)C(=O)OCC1CN(C(=S)SSC(=S)N2CCCOC(COC(=O)N(C)C)C2)CCCO1 (stereo unspecified)
IC50 [1]: 1.46 µM

CCOCC1CN(C(=S)SSC(=S)N2CCCOC(COCC)C2)CCCO1 (stereo unspecified)
IC50 [1]: 0.622 µM

c1cnc2sc(SSc3nc4cccnc4s3)nc2c1
IC50 [1]: 0.476 µM

COCC1CN(C(=S)SSC(=S)N2CCOC(COC)C2)CCO1 (stereo unspecified)
inhibition [2]: Active
IC50 [1]: 0.09 µM
inhibition [3]: Active
inhibition [4]: Active
inhibition [5]: Active

CCOC(=O)C1CCc2nc(SSc3nc4c(s3)CC(C(=O)OCC)CC4)sc2C1 (stereo unspecified)
IC50 [1]: 0.109 µM

c1ccc2sc(SSc3nc4ccccc4s3)nc2c1 [BENZOTHIAZYL DISULFIDE]
IC50 [1]: 0.379 µM

OC[C@@H]1COCCN1C(=S)SSC(=S)N1CCOC[C@H]1CO
Kinact [6]: 3.24 ×10⁻⁴ /s
IC50 [1]: 2.44 µM
Ki [1]: 4.03 µM
Ratio [7]: 0.54 ×10³ /M/s

Cc1ccc(OCC2CN(C(=S)SSC(=S)N3CCCOC(COc4ccc(C)cc4)C3)CCCO2)cc1 (stereo unspecified)
IC50 [1]: > 10 µM

O=C(O)C1CCc2nc(SSc3nc4c(s3)CC(C(=O)O)CC4)sc2C1 (stereo unspecified)
IC50 [1]: 0.13 µM

O=C(O)C(Cl)Cl [DICHLOROACETIC ACID]
IC50 [8]: 504 µM
inhibition [9]: Active
IC50 [10]: 727 µM
IC50 [11]: 11100 µM
IC50 [12]: 13800 µM
IC50 [13]: 5560 µM
IC50 [14]: > 15000 µM

CC1(C)CCc2nc(SSc3nc4c(s3)CC(C)(C)CC4)sc2C1
IC50 [1]: 0.218 µM

COC[C@@H]1COCCN1C(=S)SSC(=S)N1CCOC[C@H]1COC
Ki [8]: 0.702 µM
inhibition [9]: inactive
inhibition [15]: Dose-dependent effect
inhibition [16]: Dose-dependent effect
inhibition [2]: Active
inhibition in vivo at 80 mg/kg [17]: 20%
inhibition [18]: inactive
IC50 [11]: 1.43 µM
IC50 [12]: > 10 µM
inhibition [19]: Dose-dependent effect
IC50 [1]: 0.024 µM
Ki [1]: 0.11 µM
inhibition [3]: Active
inhibition in vivo at 40 mg/kg [20]: 11%
Ki [13]: 2.99 µM
inhibition [4]: Active
IC50 [14]: > 10 µM
IC50 [21]: 0.957 µM
inhibition [22]: Dose-dependent effect
inhibition [5]: Active

S=C(SSC(=S)N1CCOC(COc2ccccc2)C1)N1CCOC(COc2ccccc2)C1 (stereo unspecified)
inhibition [2]: Active
IC50 [1]: 0.247 µM

CC1CCc2nc(SSc3nc4c(s3)CC(C)CC4)sc2C1 (stereo unspecified)
IC50 [1]: 0.119 µM

c1csc(SSc2nccs2)n1
Kinact [6]: 56.5 ×10⁻⁴ /s
IC50 [1]: 0.326 µM
Ki [1]: 3.73 µM
Ratio [7]: 1.53 ×10³ /M/s

OCC1CN(C(=S)SSC(=S)N2CCOC(CO)C2)CCO1 (stereo unspecified)
inhibition [2]: Active
IC50 [1]: 0.702 µM
inhibition [3]: Active
inhibition [4]: inactive
inhibition [5]: inactive

COC[C@H]1COCCN1C(=S)SSC(=S)N1CCOC[C@@H]1COC
IC50 [1]: 0.03 µM
Ki [1]: 0.12 µM

C1CCc2nc(SSc3nc4c(s3)CCCCC4)sc2CC1
Kinact [6]: 69.9 ×10⁻⁴ /s
IC50 [1]: 0.039 µM
Ki [1]: 1.8 µM
Ratio [7]: 3.93 ×10³ /M/s

OC1CN(C(=S)SSC(=S)N2CC(O)C2)C1
Kinact [6]: 4.74 ×10⁻⁴ /s
IC50 [1]: 0.395 µM
Ki [1]: 0.872 µM
Ratio [7]: 0.07 ×10³ /M/s

OCCOCC1CN(C(=S)SSC(=S)N2CCCOC(COCCO)C2)CCCO1 (stereo unspecified)
IC50 [1]: 6.83 µM

CC1CN(C(=S)SSC(=S)N2CCOC(C)C2)CCO1 (stereo unspecified)
inhibition [2]: Active
IC50 [1]: 0.096 µM
inhibition [3]: Active
inhibition [4]: Active
inhibition [5]: Active

S=C(SSC(=S)N1CCOCC1)N1CCOCC1
Ki [8]: 0.176 µM
inhibition [9]: inactive
inhibition [15]: Dose-dependent effect
inhibition [16]: Dose-dependent effect
inhibition in vivo at 80 mg/kg [17]: 50.4%
inhibition [18]: inactive
IC50 [11]: 0.289 µM
IC50 [12]: > 10 µM
inhibition [19]: Dose-dependent effect
IC50 [1]: 0.049 µM
Ki [1]: 0.462 µM
Activity [23]: Active
inhibition in vivo at 40 mg/kg [20]: 27.7%
Ki [13]: 2.85 µM
IC50 [14]: > 10 µM
IC50 [21]: 0.48 µM
inhibition [22]: Dose-dependent effect
Activity [24]: Non-Toxic
